{"source": "patent US11361527B2", "about": "“Automated robotic microscopy systems” (The J. David Gladstone Institutes, a testamentary trust …, priority 2012, dated 2022)", "tested_on": "primary neurons transfected with TDP43 M337V", "test": "Automated neurite quantification in primary neurons transfected with TDP43 M337V (ALS disease model), robotic microscope", "type": "cell-based", "conditions": "fluphenazine 0.1 μM vs vehicle, images every 24 hours, FIG. 24", "procedure": "Primary neurons were transfected with GFP as a control or TDP43 M337V. The disease model neurons were treated with fluphenazine (0.1 μM) or vehicle to determine whether autophagy could rescue TDP43 M337V mediated loss of neurites. Images were collected every 24 hours with the robotic microscope and neurites were quantified using automated analysis as described herein.\nFurther, counting the number of neurites in neuronal cultures can be an early and sensitive measure of cell health. Neurite retraction often precedes neuron death when cells are coping with neurodegenerative disease causing proteins. One way to detect neurites with low computational complexity is to quantify the total area of neurites in an image. A line detector may be used to identify pixels in an image that have local structures that represent a line. The determination is based on the second order pixel data (Hessian matrix), which is a measure of local intensity curvature. In certain aspects, such an approach uses the following parameters:\nThe output of the line detector is a binary image with pixels that are part of lines having a value of 1 and all other pixels having a value of 0. The pixels of this binary image are then summed to quantify the total area of neurites. […] Images were collected every 24 hours with the robotic microscope and neurites were quantified using automated analysis as described above."}
{"smiles": "OCCN1CCN(CCCN2c3ccccc3Sc3ccc(C(F)(F)F)cc32)CC1", "note": "[fluphenazine]", "values": [{"measurement": "neurite degeneration induced by TDP43 M337V (loss of neurites, automated neurite quantification)", "value": "mitigates neurite degeneration"}]}
